“And” between values parts separate entries of the source, which are not always exact repeats. Identical values can stand only once.
Experiments:
LecA [1] = target: T1, LecA (Pseudomonas aeruginosa, UniProt Q05097); assay: Isothermal titration calorimetry with LecA; assay type: binding; conditions: for -TΔS (ITC, average) / N (ITC stoichiometry, average) / ΔG (ITC, average) / ΔH (ITC, average): LecA, average ± s.d.
T1 construct: made in house
Procedure: (§1) Next, binding of the optimized divalent ligand 17 and its synthetic precursor 16 to LecA was evaluated by fluorescence polarization-based (FP) assays,[47] SPR, and ITC. […] Therefore, fluorescent ligand 17 was analyzed in a direct binding experiment by FP. […] The dissociation constants for 16 were 47.2 ± 11.3 nM (ITC) and 47.8 ± 44.1 nM (steady-state SPR), while for 17, the values were 64.1 ± 31.1 nM and 79.3 ± 24.9 nM (steady-state SPR). For the SPR experiments, Kd was also determined by single-cycle kinetic analysis resulting in approximately five times higher affinity, but the data have limited reliability due to suboptimal fit for the kinetic curves (Figures S13B and S14).[58]−[60]
Figure 3 Evaluation of the optimized fluorescent ligand 17 and its synthetic precursor 16 in LecA binding using thermodynamic analysis by ITC. Data for one representative experiment are depicted. Averages and standard deviation from at least three independent experiments (*two independent experiments). TEXT PRINTED IN THE PICTURE: 16: ΔG [kJ/mol]: -41.9 ± 0.6*; ΔH [kJ/mol]: -89.3 ± 0.8*; -TΔS [kJ/mol]: 47.4 ± 1.4*; N: 0.47 ± 0.03*; Kd [nM]: 47.2 ± 11.3* | 17: ΔG [kJ/mol]: -41.4 ± 1.2; ΔH [kJ/mol]: -83.5 ± 3.2; -TΔS [kJ/mol]: 42.1 ± 4.3; N: 0.50 ± 0.03; Kd [nM]: 64.1 ± 31.1 […]
Isothermal titration calorimetry (ITC) was performed on an iTC200 (Malvern Panalytical) and the data were analyzed using Microcal Origin software (Malvern Panalytical).
LecA (50 µM) in the cell was titrated with ligand (100 µM or 200 µM) in TBS/Ca2+ buffer supplemented with 5% DMSO at 25 °C. Steep titration slopes achieved with the divalent ligands were the result of high amount of protein present and the high binding affinity of the ligand (high ‘value of c’).22 However, LecA protein concentration lower than 50 µM resulted in insufficient signal as a consequence of the low heat released upon binding.
Figure S15: ITC measurements of divalent alkyne ligand 16 with LecA performed in TBS/Ca2+ buffer with 5% […]
Figure S16: ITC measurements of divalent fluorescent ligand 17 with LecA performed in TBS/Ca2+ buffer with […]
50 µM LecA 50 µM LecA 50 µM LecA

LecA [2] = target: T1, LecA; assay: Surface plasmon resonance, LecA binding
Procedure: as §1, with “S14).[58]−[60] […]” for “S14).[58]−[60]”
Surface plasmon resonance experiments were performed on a BIACORE X100 instrument (GE Healthcare) at 25 °C as described by Zahorska et. al..2 Averages and standard deviations were calculated from three independent experiments. […]
Stability and LecA binding and inhibition of divalent LecA ligands
100 Expe rime ntal data 1:1 fi t 120 Expe rime ntal data 1:1 fi t
100 Expe rime ntal dataSame well1:1 fi t 80 Expe rime ntal data 1:1 fi t
-20 Time [s] -20 Times [s]
100 Expe rime ntal data 1:1 fi t 80 Expe rime ntal data 1:1 fi t mode l
-20 Time [s] -20 Time [s]
(§2) Figure S7: SPR of divalent LecA acylhydrazone ligand S36 and divalent fluorescent ligand S31. Sensorgrams obtained from SPR single-cycle kinetics experiments. Five different concentrations of each compound (0, 10, 50, 100, 200 nM) were sequentially injected to obtain the experimental sensorgrams (orange lines), which were then fitted by a 1:1 model (blue lines) on BIACORE evaluation software.
(also on this page, place not known: 561 and ZAA-116 ZAA-112 100012001400 Response [RU] Experimental fit 100012001400 Response [RU] Experimental fit 100012001400 Response [RU] Experimental fit Response [RU] Experimental fit Response [RU] Experimental fit model 100012001400 Response [RU] Experimental data 1:1 fit Same well) […]
0 kon koff kinetic equilibrium#
Figure S13:C Evaluation of the optimized fluorescent ligand Time (min)17 and its synthetic precursor Time (min)16 in LecA […]
binding assays. (A) Competitive binding (top) and direct binding (bottom) by fluorescence polarization. (B) Kinetic and equilibrium analysis by SPR (0.20 #values with limited reliability, equilibrium not fully reached). Data for one representative experiment are depicted in A0.00ZAA-202 and B. Averages and std. dev. from at least three independent 0.00ZAA-203 […]
30 -0.4Expe rime ntal data0 1:1 fi t 25 -0.20Expe rime ntal data 1:1 fi t […]
25 Expe rime ntal data 1:1 fi t Expe rime ntal data 1:1 fi t
15 Molar Ratio 25 Molar Ratio […]
as §2, with “S14:” for “S7:”, “LecA” for “LecA acylhydrazone”, “16” for “S36”, “17.” for “S31.”

[3] = individual experiments, 50 µM LecA

T1 sequence (Q05097 whole entry): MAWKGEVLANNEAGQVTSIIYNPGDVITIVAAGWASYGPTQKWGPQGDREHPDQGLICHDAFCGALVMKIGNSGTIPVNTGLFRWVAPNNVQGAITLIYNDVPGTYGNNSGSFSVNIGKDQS

Row | SMILES | -TΔS (ITC, average) (LecA [1]; 25 °C) [kcal/mol] | N (ITC stoichiometry, average) (LecA [1]; 25 °C) | ΔG (ITC, average) (LecA [1]; 25 °C) [kcal/mol] | ΔH (ITC, average) (LecA [1]; 25 °C) [kcal/mol] | -TΔS (ITC, single titration) (LecA [1]; [3]) | N (ITC, single titration) (LecA [1]; [3]) | ΔG (ITC, single titration) (LecA [1]; [3]) | ΔH (ITC, single titration) (LecA [1]; [3]) | Kd (LecA [1]; read-out: Kd (ITC, average), LecA 50 µM, TBS/Ca2+ with 5% DMSO, 25 °C, average ± s.d. (16: two experiments)) [nM] | Kd (LecA [1]; read-out: Kd (ITC, single titration), individual experiments, 50 µM LecA) | Kd (LecA [2]; read-out: equilibrium Kd (steady-state SPR), values with limited reliability, equilibrium not fully reached) [nM] | Kd (LecA [2]; read-out: kinetic Kd (SPR), single-cycle kinetics, limited reliability, suboptimal fit) [nM] | Kd (LecA [1]; Kd (ITC, average), LecA 50 µM, TBS/Ca2+ with 5% DMSO, 25 °C, average ± s.d. (16: two experiments)) [nM] | Kd (LecA [1]; Kd (ITC, single titration), individual experiments, 50 µM LecA) | Kd (LecA [2]; equilibrium Kd (steady-state SPR), values with limited reliability, equilibrium not fully reached) [nM] | Kd (LecA [2]; kinetic Kd (SPR), single-cycle kinetics, limited reliability, suboptimal fit) [nM] | koff (LecA [2]; read-out: koff (SPR)) [s⁻¹] | kon (LecA [2]; read-out: kon (SPR)) [M⁻¹ s⁻¹]
1 | O=C(CCc1ccc(O[C@@H]2O[C@H](CO)[C@H](O)[C@H](O)[C@H]2O)cc1)Nc1ccc(CN(CCc2cn(CCOCCOCCOCCNC(=S)Nc3ccc4c(c3)C(=O)OC43c4ccc(O)cc4Oc4cc(O)ccc43)nn2)Cc2ccc(NC(=O)CCc3ccc(O[C@@H]4O[C@H](CO)[C@H](O)[C@H](O)[C@H]4O)cc3)cc2)cc1 [compound 17] | 10.1 ± 1.03 | 0.50 ± 0.03 | -9.89 ± 0.287 | -20 ± 0.765 | 38,3 kJ/mol and 39,8 kJ/mol and 48,2 kJ/mol | 0,46 and 0,52 and 0,51 | -42,9 kJ/mol and -41,5 kJ/mol and -39,8 kJ/mol | -81,2 kJ/mol and -81,3 kJ/mol and -88,1 kJ/mol | 64.1 ± 31.1 | 31.3 nM and 55.3 nM and 106 nM | 79.3 ± 24.9 | 19.3 ± 10.5 |  |  |  |  |  | 
2 | C#CCCN(Cc1ccc(NC(=O)CCc2ccc(O[C@@H]3O[C@H](CO)[C@H](O)[C@H](O)[C@H]3O)cc2)cc1)Cc1ccc(NC(=O)CCc2ccc(O[C@@H]3O[C@H](CO)[C@H](O)[C@H](O)[C@H]3O)cc2)cc1 [compound 16] | 11.3 ± 0.335 | 0.47 ± 0.03 | -10 ± 0.14 | -21.3 ± 0.19 | 48,8 kJ/mol and 45,9 kJ/mol | 0,45 and 0,50 | -41,3 kJ/mol and -42,5 kJ/mol | -90,1 kJ/mol and -88,5 kJ/mol |  |  |  |  | 47.2 ± 11.3 | 36 nM and 58.5 nM | 47.8 ± 44.1 | 9.9 ± 0.5 | 0.00359 ± 0.0013 | 359000 ± 110000

From PMC11672137, “High-Affinity Lectin Ligands Enable the Detection of Pathogenic Pseudomonas aeruginosa Biofilms: Implications for Diagnostics and Therapy” (JACS Au, 2024)
